What is called IC50 is the point on the concentration scale where inhibition reaches its midpoint.

Type in all cases: cell-based
For test [1], the target named is T1, FGFR2 (Homo sapiens, UniProt P21802, K310R/N549K).
T1 construct: in FGFR aberrations of AN3CA (FGFR2/k310R, N549K); host or cells: AN3CA
Nature of the test: pERK potency assay (In Cell ELISA), AN3CA cells. To be noted: for IC50: pERK, AN3CA (FGFR2/k310R, N549K) cells, 3 hours; for FGFR1 IC50/FGFR2 IC50 / FGFR3 IC50/FGFR2 IC50: selectivity ratio, pERK potency; for FGFR1 IC50/FGFR2 IC50: FGFR2 relative to FGFR1; for FGFR3 IC50/FGFR2 IC50: FGFR2 relative to FGFR3. From the text:
(§1) The purpose of this assay is to measure the ability of test compounds to inhibit FGFR mediated downstream signaling cascades, i.e., ERK phosphorylation in cells with FGFR aberrations. FGFR aberrations become constitutively active and thus induces cascades of cellular signaling events that result in increased phosphorylation of ERK at Threonine 202 and Tyrosine 204 (pERK). The procedure called In Cell ELISA described below measures the level of cellular pERK in response to FGFR specific inhibitor compounds in FGFR aberrations of AN3CA (FGFR2/k310R, N549K), DMS114 (FGFR1 amplification), RT112 (FGFR3 overexpression/FGFR3-TACC3 fusion) and Hep3B (FGF19 amplification) cells. AN3CA, DMS114 and Hep3B cells are from ATCC. RT112 cells are from Sigma. DMS114 cells are grown and maintained using RPMI-1640 medium supplemented with 10% heat-inactivated fetal bovine serum. AN3CA, Hep3B and RT112 cells are grown and maintained using DMEM supplemented with 10% heat-inactivated fetal bovine serum. On the day before test compound addition, cells are plated in poly-D-lysine coated 96-well cell culture plates (Corning® BioCoat® Cat #356640) at 40000 cells/well/100 μL and grown overnight in a 37° C., 5% CO2 incubator. Test compounds are prepared with 4-fold serial dilutions in DMSO, with a top concentration of 10 μM. On the day of the assay, 50 μL of test compound diluted in media was added to each well of cell culture plate with the final concentration of compounds spanning from 0.000038 μM to 10 μM. After compound addition, cells are incubated for 3 hours at 37° C., 5% CO2 and then the culture medium is removed. Cells are fixed with 4% formaldehyde in phosphate-buffered saline (PBS) and incubated at RT for 20 min. The plate is then washed three times with PBST (PBS with 0.05% tween-20), followed by the incubation with 100 μL of pre-cooled methanol at −20° C. for 20 min. After incubation, methanol is removed, and the plate is washed once with PBST. Cells are permeabilized with 100 µL/well of 0.1% Triton X-100 in PBS at RT for 20 min and then quenched with quenching buffer (PBST containing 1% H2O2 and 0.1% sodium azide) for 20 min at RT with gentle shaking. After washing once with PBST, blocking buffer (250 ul/well, Pierce™ Protein-Free-PBS Blocking Buffer, Cat #37572) was then added to the cells for 1-h incubation at RT, followed by anti-pERK antibody (cell signaling, 1:1000 dilution in 5% BSA in PBST) incubation overnight at 4° C. and secondary antibody-HRP (Jackson immunoresearch, 1:3000 dilution in 5% BSA in PBST) incubation at RT for 1 h. PBST wash is carried out after each step three times. Before the addition of the substrate (Advansta ELISABright), the plate is washed with PBS twice to remove detergent residues. Cellular pERK level is determined using the microplate reader (Biotek Synergy H1) to detect the chemiluminescence signal. IC50 is determined by fitting a 4-parameter sigmoidal concentration-response model. FGFR wild type cells (H1975, PC-9 and AGS) are used to serve as negative control (FGFR selectivity) with the same assay procedures described above.

Test [2] concerns the target T2, FGFR1 (Homo sapiens, UniProt P11362).
T2 construct: DMS114 (FGFR1 amplification); host or cells: DMS114
Nature of the test: pERK potency assay (In Cell ELISA), DMS114 cells. Particulars: DMS114 (FGFR1 amplification) cells, 3 hours.
From the text: as §1
In general terms: An ELISA detects its analyte on a solid surface through an enzyme-linked reagent.

Test [3] concerns the target T3, FGFR3 (Homo sapiens, UniProt P22607).
T3 construct: RT112 (FGFR3 overexpression/FGFR3-TACC3 fusion); host or cells: RT112; the other entry of the earlier key: TACC3 (Q9Y6A5, Transforming acidic coiled-coil-containing protein 3)
Nature of the test: pERK potency assay (In Cell ELISA), RT112 cells. To be noted: RT112 (FGFR3 overexpression/FGFR3-TACC3 fusion) cells, 3 hours.
From the text: as §1

T1 sequence (P21802 22-821 K310R/N549K): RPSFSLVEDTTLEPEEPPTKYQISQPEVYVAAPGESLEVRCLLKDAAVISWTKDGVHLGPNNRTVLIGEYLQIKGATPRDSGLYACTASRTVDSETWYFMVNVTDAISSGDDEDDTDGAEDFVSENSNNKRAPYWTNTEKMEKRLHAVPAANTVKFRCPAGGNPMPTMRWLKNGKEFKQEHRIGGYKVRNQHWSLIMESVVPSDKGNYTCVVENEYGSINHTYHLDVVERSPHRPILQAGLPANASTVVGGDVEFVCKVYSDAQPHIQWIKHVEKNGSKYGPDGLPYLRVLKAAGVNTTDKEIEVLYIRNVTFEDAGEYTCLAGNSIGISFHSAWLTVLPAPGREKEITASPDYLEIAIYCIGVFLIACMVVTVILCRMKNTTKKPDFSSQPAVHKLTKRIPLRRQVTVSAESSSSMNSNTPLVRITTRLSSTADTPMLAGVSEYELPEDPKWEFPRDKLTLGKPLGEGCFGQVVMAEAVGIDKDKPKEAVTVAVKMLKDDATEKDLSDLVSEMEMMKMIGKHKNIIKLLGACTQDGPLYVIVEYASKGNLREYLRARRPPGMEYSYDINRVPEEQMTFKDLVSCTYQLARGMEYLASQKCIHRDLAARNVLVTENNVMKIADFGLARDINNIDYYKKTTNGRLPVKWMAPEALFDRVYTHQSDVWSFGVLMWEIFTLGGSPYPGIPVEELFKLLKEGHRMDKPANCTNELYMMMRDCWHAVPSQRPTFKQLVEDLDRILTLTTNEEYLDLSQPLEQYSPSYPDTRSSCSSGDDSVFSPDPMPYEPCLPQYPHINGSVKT
T2 sequence (P11362 22-822): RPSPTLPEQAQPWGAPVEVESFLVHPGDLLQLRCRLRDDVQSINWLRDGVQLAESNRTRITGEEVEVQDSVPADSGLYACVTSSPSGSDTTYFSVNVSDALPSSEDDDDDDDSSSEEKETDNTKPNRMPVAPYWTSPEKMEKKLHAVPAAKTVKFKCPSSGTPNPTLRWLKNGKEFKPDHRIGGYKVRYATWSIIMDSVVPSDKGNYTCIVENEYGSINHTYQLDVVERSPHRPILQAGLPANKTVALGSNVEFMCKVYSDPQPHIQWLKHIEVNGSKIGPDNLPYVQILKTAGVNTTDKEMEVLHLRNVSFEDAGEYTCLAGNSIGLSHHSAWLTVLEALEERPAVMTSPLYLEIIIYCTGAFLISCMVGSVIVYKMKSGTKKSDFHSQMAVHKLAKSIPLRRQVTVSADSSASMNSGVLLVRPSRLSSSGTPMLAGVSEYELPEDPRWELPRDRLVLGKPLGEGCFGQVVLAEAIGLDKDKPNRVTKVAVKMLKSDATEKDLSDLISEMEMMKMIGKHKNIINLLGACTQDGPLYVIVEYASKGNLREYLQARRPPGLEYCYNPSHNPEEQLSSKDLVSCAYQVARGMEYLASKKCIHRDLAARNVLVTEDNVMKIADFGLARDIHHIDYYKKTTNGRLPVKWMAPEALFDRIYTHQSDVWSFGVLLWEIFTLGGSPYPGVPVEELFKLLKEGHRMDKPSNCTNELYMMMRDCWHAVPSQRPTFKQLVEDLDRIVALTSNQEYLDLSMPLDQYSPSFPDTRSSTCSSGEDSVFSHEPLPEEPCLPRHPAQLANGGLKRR

As for `C=CC(=O)N1CCC2(CC=C(c3c(-c4ncccn4)c4c(N)ncnc4n3C)CC2)CC1(C)C` (stereo not drawn) [Example 34, 1-(9-(4-amino-7-methyl-5-(pyrimidin-2-yl)-7H-pyrrolo[2,3-d]pyrimidin-6-yl)-2,2-dimethyl-3-azaspiro[5.5]undec-8-en-3-yl)prop-2-en-1-one], in test [1], the IC50 is 1 to 10 nM, the “FGFR1 IC50/FGFR2 IC50” value is listed as “H (a selectivity ratio greater than 500 but less than or equal to 1000)” and the “FGFR3 IC50/FGFR2 IC50” value is “J (a selectivity ratio greater than 2000)”. Further, the IC50 in test [2] is greater than 100 nM. In addition, in test [3], the IC50 was greater than 100 nM.

As for `C=CC(=O)N1CCC2(CC=C(c3c(-c4nccc(C)n4)c4c(N)ncnc4n3C)CC2)CC1` [Example 35, 1-(9-(4-amino-7-methyl-5-(4-methylpyrimidin-2-yl)-7H-pyrrolo[2,3-d]pyrimidin-6-yl)-3-azaspiro[5.5]undec-8-en-3-yl)prop-2-en-1-one], in test [1], the IC50 lay in the range of 10 to 30 nM, the “FGFR1 IC50/FGFR2 IC50” value is recorded as “F (a selectivity ratio greater than 50 but less than or equal to 150)” and the “FGFR3 IC50/FGFR2 IC50” value is “G (a selectivity ratio greater than 150 but less than or equal to 500)”. In test [2], the IC50 was greater than 100 nM. Besides, the IC50 in test [3] was greater than 100 nM.

Turning to `C=CC(=O)N1CCC2(CC=C(c3c(-c4ccc(OC5CC5)cc4)c4c(N)ncnc4n3C(F)F)CC2)CC1` [Example 36, 1-(9-(4-amino-5-(4-cyclopropoxyphenyl)-7-(difluoromethyl)-7H-pyrrolo[2,3-d]pyrimidin-6-yl)-3-azaspiro[5.5]undec-8-en-3-yl)prop-2-en-1-one], in test [1], the IC50 lay in the range of 1 to 10 nM, the “FGFR1 IC50/FGFR2 IC50” value is recorded as “F (a selectivity ratio greater than 50 but less than or equal to 150)” and the “FGFR3 IC50/FGFR2 IC50” value is “G (a selectivity ratio greater than 150 but less than or equal to 500)”. Further, in test [2], the IC50 lay in the range of 30 to 100 nM. The half-inhibitory concentration (IC50) in test [3] was greater than 100 nM.

For the compound `C=CC(=O)N1CCC2(CC=C(c3c(-c4ccc(C#N)nc4)c4c(N)ncnc4n3C(F)F)CC2)CC1` [Example 37, 5-(6-(3-acryloyl-3-azaspiro[5.5]undec-8-en-9-yl)-4-amino-7-(difluoromethyl)-7H-pyrrolo[2,3-d]pyrimidin-5-yl)picolinonitrile], in test [1], the IC50 was in the range of 10 to 30 nM, the “FGFR1 IC50/FGFR2 IC50” value is “G (a selectivity ratio greater than 150 but less than or equal to 500)” and the “FGFR3 IC50/FGFR2 IC50” value was “G (a selectivity ratio greater than 150 but less than or equal to 500)”. Further, in test [2], the IC50 was greater than 100 nM. In test [3], the IC50 is greater than 100 nM.

For `[2H]C([2H])([2H])Oc1ccc(-c2c(C3=C(F)CC4(CC3)CCN(C(=O)C=C)CC4)n(C)c3ncnc(N)c23)cc1` [Example 38, 1-(9-(4-amino-5-(4-(methoxy-d3)phenyl)-7-methyl-7H-pyrrolo[2,3-d]pyrimidin-6-yl)-8-fluoro-3-azaspiro[5.5]undec-8-en-3-yl)prop-2-en-1-one], in test [1], the IC50 was no more than 1 nM, the “FGFR1 IC50/FGFR2 IC50” value is recorded as “F (a selectivity ratio greater than 50 but less than or equal to 150)” and the “FGFR3 IC50/FGFR2 IC50” value is “F (a selectivity ratio greater than 50 but less than or equal to 150)”. In test [2], the IC50 lay in the range of 30 to 100 nM. The IC50 in test [3] is 30 to 100 nM.

In the case of `C=CC(=O)N1CCC2(CC=C(c3c(-c4ccc(OC)nc4)c4c(N)ncnc4n3C)CC2)CC1(C)C` (stereo not drawn) [Example 40, 1-(9-(4-amino-5-(6-methoxypyridin-3-yl)-7-methyl-7H-pyrrolo[2,3-d]pyrimidin-6-yl)-2,2-dimethyl-3-azaspiro[5.5]undec-8-en-3-yl)prop-2-en-1-one], the IC50 in test [1] is 1 to 10 nM; in test [2] it was greater than 100 nM; in test [3] it was greater than 100 nM. Also, the “FGFR1 IC50/FGFR2 IC50” value in test [1] was “G (a selectivity ratio greater than 150 but less than or equal to 500)”. Also, the “FGFR3 IC50/FGFR2 IC50” value in test [1] was “I (a selectivity ratio greater than 1000 but less than or equal to 2000)”.

The values are drawn from patent US20260152503A1, “SPIROBICYCLIC COMPOUNDS” (ACERAND THERAPEUTICS (HONG KONG) LIMITED, priority 2022, published 2026).
